Laboratory results reported in ChEMBL document CHEMBL4229497, “Design and synthesis of benzofuro[3,2-b]pyridin-2(1H)-one derivatives as anti-leukemia agents by inhibiting Btk and PI3Kδ” (Bioorg Med Chem, 2018).
Calls of active or inactive are those of the source. The rule behind the calls is not given here.

How the values were obtained:
[1] = target: PI3-kinase p110-delta/p85-alpha (Homo sapiens) (UniProt P27986+O00329); test: Inhibition of recombinant human full length N-terminal His-tagged PI3K p110delta/p85alpha at 200 nM using lipid substrate after 60 mins by ADP-Glo assay relative to control; format: protein-complex assay
HL-60 [2] = test: Antiproliferative activity against human HL60 cells after 48 hrs by MTT assay; format: functional, cell-based; details: HL-60, 48 h
K562 [3] = test: Inhibition of PI3K/Akt/mTOR pathway in human K562 cells assessed as reduction in Akt phosphorylation at Ser-473 residue at 1 uM after 24 hrs by Western blot analysis; format: cell-based
K562 [4] = test: Antiproliferative activity against human K562 cells after 48 hrs by MTT assay; format: functional, cell-based; details: K562, 48 h
Raji [5] = test: Antiproliferative activity against human Raji cells after 48 hrs by MTT assay; format: functional, cell-based
Raji [6] = test: Antiproliferative activity against human Raji cells at 40 uM after 48 hrs by MTT assay relative to control; format: functional
HL-60 [7] = test: Antiproliferative activity against human HL60 cells at 40 uM after 48 hrs by MTT assay relative to control; format: functional
K562 [8] = test: Antiproliferative activity against human K562 cells at 40 uM after 48 hrs by MTT assay relative to control; format: functional
[9] = target: Phosphatidylinositol 4,5-bisphosphate 3-kinase catalytic subunit alpha isoform (Homo sapiens, UniProt P42336); test: Inhibition of PI3Kalpha (unknown origin)
[10] = target: Phosphatidylinositol 4,5-bisphosphate 3-kinase catalytic subunit beta isoform (Homo sapiens, UniProt P42338); test: Inhibition of PI3Kbeta (unknown origin)
Chain of Phosphatidylinositol 4,5-bisphosphate 3-kinase catalytic subunit beta isoform (P42338 whole entry, canonical isoform): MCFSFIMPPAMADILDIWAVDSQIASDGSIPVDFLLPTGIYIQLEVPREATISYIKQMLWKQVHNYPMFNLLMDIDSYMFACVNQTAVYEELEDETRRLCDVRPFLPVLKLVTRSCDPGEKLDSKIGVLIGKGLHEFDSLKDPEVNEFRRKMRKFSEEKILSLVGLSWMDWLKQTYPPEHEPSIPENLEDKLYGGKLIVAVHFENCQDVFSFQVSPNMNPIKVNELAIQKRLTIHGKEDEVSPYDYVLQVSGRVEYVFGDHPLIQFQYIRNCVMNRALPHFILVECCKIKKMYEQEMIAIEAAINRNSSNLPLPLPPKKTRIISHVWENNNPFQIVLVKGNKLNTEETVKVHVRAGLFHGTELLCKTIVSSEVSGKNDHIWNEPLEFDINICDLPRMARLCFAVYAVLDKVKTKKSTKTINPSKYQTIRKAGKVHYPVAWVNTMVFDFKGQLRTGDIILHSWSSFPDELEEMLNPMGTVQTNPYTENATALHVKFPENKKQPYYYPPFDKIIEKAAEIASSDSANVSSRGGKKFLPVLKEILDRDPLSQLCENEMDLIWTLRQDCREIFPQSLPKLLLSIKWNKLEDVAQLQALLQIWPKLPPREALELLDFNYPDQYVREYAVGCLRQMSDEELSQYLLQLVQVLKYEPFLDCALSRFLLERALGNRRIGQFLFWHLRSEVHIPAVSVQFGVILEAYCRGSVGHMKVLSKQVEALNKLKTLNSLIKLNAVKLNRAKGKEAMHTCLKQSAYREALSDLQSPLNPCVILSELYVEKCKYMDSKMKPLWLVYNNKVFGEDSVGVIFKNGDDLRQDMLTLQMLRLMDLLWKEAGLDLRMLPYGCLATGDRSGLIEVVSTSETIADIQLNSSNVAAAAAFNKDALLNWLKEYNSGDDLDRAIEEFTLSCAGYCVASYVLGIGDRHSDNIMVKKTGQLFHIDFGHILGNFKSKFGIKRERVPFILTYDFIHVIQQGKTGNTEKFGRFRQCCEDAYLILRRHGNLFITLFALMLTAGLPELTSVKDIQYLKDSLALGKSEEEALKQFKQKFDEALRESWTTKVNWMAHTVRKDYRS

[11] = target: T1, Phosphatidylinositol 4,5-bisphosphate 3-kinase catalytic subunit gamma isoform (Homo sapiens, UniProt P48736); test: Inhibition of PI3Kgamma (unknown origin)
T1 sequence (P48736 whole entry, canonical isoform): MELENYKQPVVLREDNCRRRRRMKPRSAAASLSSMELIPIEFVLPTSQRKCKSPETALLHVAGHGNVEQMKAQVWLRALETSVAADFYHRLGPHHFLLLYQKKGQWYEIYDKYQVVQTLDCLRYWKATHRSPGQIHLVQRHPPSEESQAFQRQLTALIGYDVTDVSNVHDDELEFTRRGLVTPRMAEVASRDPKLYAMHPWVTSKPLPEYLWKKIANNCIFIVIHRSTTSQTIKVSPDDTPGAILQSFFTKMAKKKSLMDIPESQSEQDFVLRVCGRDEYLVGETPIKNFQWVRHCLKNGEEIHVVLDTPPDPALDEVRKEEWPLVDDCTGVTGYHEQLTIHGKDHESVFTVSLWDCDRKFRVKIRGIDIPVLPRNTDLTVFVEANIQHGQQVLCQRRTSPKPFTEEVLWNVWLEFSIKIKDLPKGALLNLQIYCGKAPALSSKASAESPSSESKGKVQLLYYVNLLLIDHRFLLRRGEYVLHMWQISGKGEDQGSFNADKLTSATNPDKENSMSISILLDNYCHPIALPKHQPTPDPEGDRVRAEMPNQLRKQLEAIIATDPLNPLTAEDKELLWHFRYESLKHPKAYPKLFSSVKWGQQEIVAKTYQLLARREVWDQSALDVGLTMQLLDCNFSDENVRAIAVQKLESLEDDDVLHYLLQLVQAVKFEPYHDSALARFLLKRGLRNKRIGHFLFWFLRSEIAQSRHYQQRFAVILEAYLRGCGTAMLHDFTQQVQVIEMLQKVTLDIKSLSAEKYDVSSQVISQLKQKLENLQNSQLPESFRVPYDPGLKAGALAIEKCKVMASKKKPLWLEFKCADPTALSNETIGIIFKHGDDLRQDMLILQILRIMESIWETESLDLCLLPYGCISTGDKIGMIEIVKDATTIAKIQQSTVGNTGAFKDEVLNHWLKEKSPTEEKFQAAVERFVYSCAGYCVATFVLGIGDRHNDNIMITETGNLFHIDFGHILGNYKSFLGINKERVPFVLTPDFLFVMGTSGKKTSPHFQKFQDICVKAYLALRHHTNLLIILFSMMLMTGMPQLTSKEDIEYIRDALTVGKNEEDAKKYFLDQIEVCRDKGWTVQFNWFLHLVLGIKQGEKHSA

[12] = target: Tyrosine-protein kinase BTK (Homo sapiens, UniProt Q06187); test: Inhibition of recombinant full length human N-terminal His tagged BTK expressed in baculovirus infected Sf9 cells using poly (4:1 Glu, Tyr) as substrate after 60 mins by ADP-Glo assay
Chain of Tyrosine-protein kinase BTK (Q06187 whole entry): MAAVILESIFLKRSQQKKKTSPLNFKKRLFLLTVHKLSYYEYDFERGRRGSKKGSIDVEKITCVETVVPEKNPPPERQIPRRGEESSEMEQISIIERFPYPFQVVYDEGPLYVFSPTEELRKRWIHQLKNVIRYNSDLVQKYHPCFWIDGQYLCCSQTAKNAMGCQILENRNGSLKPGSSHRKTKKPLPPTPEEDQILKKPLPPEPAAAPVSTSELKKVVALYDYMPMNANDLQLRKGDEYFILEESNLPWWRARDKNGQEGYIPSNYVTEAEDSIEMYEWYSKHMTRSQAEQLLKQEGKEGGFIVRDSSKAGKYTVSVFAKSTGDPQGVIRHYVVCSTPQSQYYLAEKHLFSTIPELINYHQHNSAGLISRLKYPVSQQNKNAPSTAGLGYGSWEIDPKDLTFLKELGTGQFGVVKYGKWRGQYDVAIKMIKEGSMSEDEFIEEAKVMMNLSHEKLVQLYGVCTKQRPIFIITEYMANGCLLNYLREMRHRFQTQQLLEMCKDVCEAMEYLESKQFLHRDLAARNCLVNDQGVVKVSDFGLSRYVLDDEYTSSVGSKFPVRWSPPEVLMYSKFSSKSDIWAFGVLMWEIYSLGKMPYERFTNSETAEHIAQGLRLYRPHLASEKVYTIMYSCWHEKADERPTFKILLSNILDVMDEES

[13] = Inhibition of PI3K (unknown origin); set-up: species or system Homo sapiens
[14] = target: Serine/threonine-protein kinase mTOR (Homo sapiens, UniProt P42345); test: Inhibition of recombinant human N-terminal FLAG-tagged mTOR (1362-end residues)
[15] = target: PI3-kinase p110-delta/p85-alpha (Homo sapiens, UniProt O00329); test: Inhibition of recombinant human full length N-terminal His-tagged PI3K p110delta/p85alpha using lipid substrate after 60 mins by ADP-Glo assay; format: protein-complex assay
Chain of PI3-kinase p110-delta/p85-alpha (P27986 whole entry): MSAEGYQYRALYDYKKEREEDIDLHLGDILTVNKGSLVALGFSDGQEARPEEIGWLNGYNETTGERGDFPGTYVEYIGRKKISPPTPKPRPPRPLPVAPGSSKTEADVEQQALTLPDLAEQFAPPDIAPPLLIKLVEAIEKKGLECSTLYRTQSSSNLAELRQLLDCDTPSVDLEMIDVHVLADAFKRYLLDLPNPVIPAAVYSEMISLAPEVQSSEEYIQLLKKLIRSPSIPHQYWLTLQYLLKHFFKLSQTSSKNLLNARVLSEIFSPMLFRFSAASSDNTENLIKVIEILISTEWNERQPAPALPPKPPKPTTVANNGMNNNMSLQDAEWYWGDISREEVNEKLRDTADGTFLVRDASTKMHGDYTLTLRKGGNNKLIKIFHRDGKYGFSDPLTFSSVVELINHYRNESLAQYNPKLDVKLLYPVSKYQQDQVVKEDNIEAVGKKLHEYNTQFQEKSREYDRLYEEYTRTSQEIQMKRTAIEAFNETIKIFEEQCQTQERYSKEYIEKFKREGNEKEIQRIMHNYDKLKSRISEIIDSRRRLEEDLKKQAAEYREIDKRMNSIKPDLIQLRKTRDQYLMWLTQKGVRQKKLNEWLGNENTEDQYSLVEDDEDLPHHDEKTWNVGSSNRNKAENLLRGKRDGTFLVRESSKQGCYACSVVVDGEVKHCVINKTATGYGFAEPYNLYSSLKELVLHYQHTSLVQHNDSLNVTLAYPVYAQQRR
Chain of PI3-kinase p110-delta/p85-alpha (O00329 whole entry): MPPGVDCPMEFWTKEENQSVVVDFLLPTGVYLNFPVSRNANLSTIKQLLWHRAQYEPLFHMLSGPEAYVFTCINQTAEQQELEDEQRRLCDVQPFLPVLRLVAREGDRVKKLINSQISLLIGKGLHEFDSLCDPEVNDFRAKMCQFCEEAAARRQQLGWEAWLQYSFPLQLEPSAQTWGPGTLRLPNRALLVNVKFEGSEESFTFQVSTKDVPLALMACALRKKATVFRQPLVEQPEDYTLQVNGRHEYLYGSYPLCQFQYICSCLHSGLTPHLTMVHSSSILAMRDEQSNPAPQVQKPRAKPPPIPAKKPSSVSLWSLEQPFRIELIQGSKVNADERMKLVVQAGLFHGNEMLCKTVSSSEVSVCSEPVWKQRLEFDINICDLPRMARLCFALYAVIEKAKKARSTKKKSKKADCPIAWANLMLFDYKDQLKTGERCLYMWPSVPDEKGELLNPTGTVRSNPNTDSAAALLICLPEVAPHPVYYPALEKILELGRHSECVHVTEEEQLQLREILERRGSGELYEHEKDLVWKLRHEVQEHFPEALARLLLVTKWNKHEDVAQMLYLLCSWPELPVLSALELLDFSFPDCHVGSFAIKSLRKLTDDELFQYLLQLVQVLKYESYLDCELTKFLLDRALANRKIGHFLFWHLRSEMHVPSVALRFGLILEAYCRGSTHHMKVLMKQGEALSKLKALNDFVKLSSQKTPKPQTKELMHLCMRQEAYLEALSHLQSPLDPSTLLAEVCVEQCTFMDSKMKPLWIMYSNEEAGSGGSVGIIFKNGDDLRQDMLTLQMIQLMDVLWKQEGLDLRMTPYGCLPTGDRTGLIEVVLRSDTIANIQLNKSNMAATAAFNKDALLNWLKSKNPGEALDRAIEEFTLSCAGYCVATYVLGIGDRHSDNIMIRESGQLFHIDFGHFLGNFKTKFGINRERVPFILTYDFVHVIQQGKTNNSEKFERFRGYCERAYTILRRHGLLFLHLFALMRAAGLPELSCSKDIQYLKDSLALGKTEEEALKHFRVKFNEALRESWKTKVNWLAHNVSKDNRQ

PI3K p110 beta/p85 alpha = PI3K p110 beta/p85 alpha (Homo sapiens, UniProt P42338); test: Inhibition of recombinant full length human N-terminal His6-tagged PI3K p110beta/p85alpha expressed in baculovirus infected Sf21 cells using lipid substrate after 60 mins by ADP-Glo assay
Chain of PI3K p110 beta/p85 alpha (P27986 whole entry, canonical isoform): as the sequence (P27986 whole entry) above
Chain of PI3K p110 beta/p85 alpha (P42338 whole entry, canonical isoform): as the sequence (P42338 whole entry, canonical isoform) above

[16] = target: T1, Phosphatidylinositol 4,5-bisphosphate 3-kinase catalytic subunit gamma isoform; test: Inhibition of recombinant human full length His-tagged PI3K p110gamma expressed in baculovirus expression system using lipid substrate after 60 mins by ADP-Glo assay
[17] = target: PI3-kinase p110-alpha/p85-alpha (Homo sapiens, UniProt P42336); test: Inhibition of recombinant human full length His-tagged PI3K p110alpha/p85alpha expressed in baculovirus expression system using lipid substrate after 60 mins by ADP-Glo assay

| inhibition [1] | IC50 (HL-60 [2]) | IC50 (K562 [4]) | IC50 (Raji [5]) | Structure (SMILES) | also measured |
| --- | --- | --- | --- | --- | --- |
| inactive | 5.5 µM | 1.3 µM | 5.84 µM | COc1ccc(-c2ccc3oc4ccc(=O)n(-c5ccc(NC(=O)CN6CCNCC6)cc5)c4c3c2)cn1 | Reduction in Akt Ser-473 phosphorylation (K562 [3]): Active |
|  |  | 17 µM |  | COc1ccc(-c2ccc3oc4ccc(=O)n(-c5ccc(NC(=O)C(F)(F)F)cc5)c4c3c2)cn1 | Activity (Raji [6]): 10%; Activity (HL-60 [7]): 35.4% |
|  |  |  |  | COc1ccc(-c2ccc3oc4ccc(=O)n(-c5ccc(N)cc5)c4c3c2)cn1 | Activity (Raji [6]): 41.5%; Activity (HL-60 [7]): 21.5%; Activity (K562 [8]): 17.6% |
| inactive | 17.9 µM | 31 µM |  | C=CC(=O)Nc1ccc(-n2c(=O)ccc3oc4ccc(-c5ccc(OC)nc5)cc4c32)cc1 | Activity (Raji [6]): 35%; Reduction in Akt Ser-473 phosphorylation (K562 [3]): Active |
|  | 28.2 µM |  | 25 µM | C=CC(=O)Nc1ccc(-n2c(=O)ccc3oc4ccc(-c5cccc([N+](=O)[O-])c5)cc4c32)cc1 | Activity (K562 [8]): 39% |
|  |  |  |  | COc1ccc(-c2ccc3oc4ccc(=O)n(-c5ccc([N+](=O)[O-])cc5)c4c3c2)cn1 | Activity (Raji [6]): inactive; Activity (HL-60 [7]): inactive; Activity (K562 [8]): 28.8% |
|  |  |  |  | CCOC(=O)CNc1ccc(-n2c(=O)ccc3oc4ccc(-c5ccc(OC)nc5)cc4c32)cc1 | Activity (Raji [6]): inactive; Activity (HL-60 [7]): 46%; Activity (K562 [8]): 29.4% |
|  | 15.5 µM | 16.2 µM | 16.7 µM | COc1ccc(-c2ccc3oc4ccc(=O)n(-c5ccc(NS(C)(=O)=O)cc5)c4c3c2)cn1 |  |
|  |  |  |  | COc1ccc(-c2ccc3ncc4c(c3c2)n(-c2ccc(N3CCNCC3)c(C(F)(F)F)c2)c(=O)n4C)cn1 [BGT-226 FREE BASE] | IC50 [9]: 0.004 µM; IC50 [10]: 0.063 µM; IC50 [11]: 0.038 µM |
| inactive | 4.9 µM | 2.6 µM | 8.01 µM | COc1ccc(-c2ccc3oc4ccc(=O)n(-c5ccc(NC(=O)CN6CCCCC6)cc5)c4c3c2)cn1 | IC50 [12]: 0.106 µM; Reduction in Akt Ser-473 phosphorylation (K562 [3]): Active |
|  |  |  |  | C=CC(=O)Nc1ccc(-n2c(=O)ccc3oc4ccc(-c5ccc(OC)cc5)cc4c32)cc1 | Activity (Raji [6]): inactive; Activity (K562 [8]): 28.3% |
| inactive | 10 µM | 6.9 µM | 5.3 µM | C=CC(=O)Nc1ccc(-n2c(=O)ccc3oc4ccc(-c5cccc(N)c5)cc4c32)cc1 |  |
|  |  |  |  | C=CC(=O)Nc1ccc(-n2c(=O)ccc3oc4ccc(-c5ccc(C(=O)O)cc5)cc4c32)cc1 | Activity (Raji [6]): 38%; Activity (HL-60 [7]): 22.2%; Activity (K562 [8]): inactive |
|  | 8.4 µM | 5.9 µM | 15.3 µM | CCN(CC)CC(=O)Nc1ccc(-n2c(=O)ccc3oc4ccc(-c5ccc(OC)nc5)cc4c32)cc1 |  |
|  | 3.2 µM | 3.5 µM | 6.26 µM | CNCC(=O)Nc1ccc(-n2c(=O)ccc3oc4ccc(-c5ccc(OC)nc5)cc4c32)cc1 |  |
| 4.2% | 3.9 µM | 5.7 µM | 3.9 µM | C=CC(=O)Nc1ccc(-n2c(=O)ccc3oc4ccc(-c5ccc(O)cc5)cc4c32)cc1 |  |
| inactive | 4 µM | 4.1 µM | 12.8 µM | COc1ccc(-c2ccc3oc4ccc(=O)n(-c5ccc(NC(=O)CN(C)C)cc5)c4c3c2)cn1 | IC50 [12]: 0.237 µM; Reduction in Akt Ser-473 phosphorylation (K562 [3]): Active |
|  |  |  | 39 µM | COc1ccc(-c2ccc3oc4ccc(=O)n(-c5ccc(NC(C)=O)cc5)c4c3c2)cn1 | Activity (K562 [8]): 47.5% |
| 11.6% | 4 µM | 10 µM | 13.2 µM | COc1ccc(-c2ccc3oc4ccc(=O)n(-c5ccc(NC(=O)CN6CCOCC6)cc5)c4c3c2)cn1 | IC50 [12]: 0.2 µM |
|  | 7.3 µM | 10.2 µM | 15.7 µM | C=CC(=O)Nc1ccc(-n2c(=O)ccc3oc4ccc(-c5cccc6[nH]ccc56)cc4c32)cc1 |  |
|  | 12.7 µM |  | 39.5 µM | COc1ccc(-c2ccc3oc4ccc(=O)n(-c5ccc(NCC(=O)O)cc5)c4c3c2)cn1 | Activity (K562 [8]): 46% |
| 64.4% | 1 µM | 5.7 µM | 4.3 µM | Cn1c(=O)n(-c2ccc(C(C)(C)C#N)cc2)c2c3cc(-c4cnc5ccccc5c4)ccc3ncc21 [DACTOLISIB] | Reduction in Akt Ser-473 phosphorylation (K562 [3]): Active |
| 4.8% | 12.6 µM | 9.6 µM | 2.4 µM | C=CC(=O)Nc1ccc(-n2c(=O)ccc3oc4ccc(-c5cnn(C)c5)cc4c32)cc1 | IC50 [12]: 0.217 µM; Reduction in Akt Ser-473 phosphorylation (K562 [3]): Active |
| inactive | 3.2 µM | 4.7 µM | 9.72 µM | COc1ccc(-c2ccc3oc4ccc(=O)n(-c5ccc(NC(=O)CN6CCN(C)CC6)cc5)c4c3c2)cn1 | IC50 [12]: 0.139 µM |
|  |  |  |  | C=CC(=O)N1CCc2ccc(-n3c(=O)ccc4cnc5ccc(-c6cnn(C)c6)cc5c43)cc21 | IC50 [13]: 0.69 µM |
| 45.8% | 4.2 µM | 11.1 µM | 5.2 µM | C=CC(=O)Nc1ccc(-n2c(=O)ccc3oc4ccc(-c5cccnc5)cc4c32)cc1 | IC50 [12]: 0.136 µM; IC50 [14]: 0.228 µM; IC50 [15]: 0.275 µM; Reduction in Akt Ser-473 phosphorylation (K562 [3]): Active; IC50 (PI3K p110 beta/p85 alpha): 0.838 µM; IC50 [16]: 0.684 µM; IC50 [17]: 0.254 µM |
| inactive | 5.4 µM | 6.5 µM | 11.3 µM | COc1ccc(-c2ccc3oc4ccc(=O)n(-c5ccc(NC(=O)CN6CCCC6)cc5)c4c3c2)cn1 | IC50 [12]: 0.183 µM |

| Structure (SMILES) | inhibition [1] | IC50 (HL-60 [2]) | IC50 (K562 [4]) | IC50 (Raji [5]) | also measured |
| --- | --- | --- | --- | --- | --- |
| C=CC(=O)N1CCC[C@@H](n2nc(-c3ccc(Oc4ccccc4)cc3)c3c(N)ncnc32)C1 [IBRUTINIB] |  | 8 µM | 7.5 µM | 14.2 µM |  |
